Our source for the viability values is the supplement of paper PMC6723410.

The experiment relates to GUMC-403. The experiment in a line: viability at highest tested concentration (max response) relative to DMSO (% of DMSO control); higher = less cytotoxic. The settings on record: library / dose series: MIPE library, 11-point 1:3 dilution; top concentration 46.1 µM; 48 h. An outline of the steps: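 Each figure stands for viability at the highest tested concentration compared with vehicle control. It was measured by CellTiter-Glo luminescence on a ViewLux after 48 h of exposure to 23 nL of pinned compound, with vehicle wells taken as 100% and empty wells as 0%. The cells were patient-derived GUMC-403 papilloma cells grown by conditional reprogramming, plated at 700/well in 5 μL F + Y medium in 1536-well plates.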
`C[C@@H](CN1CC(=O)NC(=O)C1)N1CC(=O)NC(=O)C1` displayed a viability of 118.

`CC[C@H]1OC(=O)[C@H](C)[C@@H](O[C@H]2C[C@@](C)(OC)[C@@H](O)[C@H](C)O2)[C@H](C)[C@@H](O[C@@H]2O[C@H](C)C[C@H](N(C)C)[C@H]2O)[C@](C)(OC)C[C@@H](C)C(=O)[C@H](C)[C@@H](O)[C@]1(C)O`: the viability was found to be 112.

In the case of `CCCCCCCCCCCC/1=C(O)/C(=O)/C=C(O)\C1=O`, the viability stood at 89.

`CN1\C(=C(\O)C2=C(C=CC=C2)[S+]1([O-])=O)C(=O)NC3=CC=CC=N3` returned a viability of 99.

`C[C@]12CC[C@H]3[C@@H](CCC4=CC(=O)CC[C@@H]43)[C@@H]1CC[C@@H]2OC(=O)CCc1ccccc1` came in with a viability of 118.

For the molecule `O=C(Nc1cccc(Br)c1)c1cccc([S+](=O)([O-])N2CCCCCC2)c1`, the viability was 111.

As for `Cc1nnc(C(=O)NC(C)(C)c2nc(C(=O)NCc3ccc(F)cc3)c(O)c(=O)n2C)o1`, the viability was 124.

On to `C\C1=C\N([C@H]2C[C@H](N=[N+]=[N-])[C@@H](CO)O2)C(=O)NC1=O`, for which the viability was 113.

For `C[C@H](NC(=O)C(=O)Nc1ccccc1C(C)(C)C)C(=O)N[C@@H](CC(=O)O)C(=O)COc1c(F)c(F)cc(F)c1F`, the viability was 68.7.

For `CO[C@@H]1[C@@H](OC(N)=O)[C@@H](O)[C@H](OC2=CC=C3\C(=C(NC(=O)C4=CC=C([O-])C(=C4)CC=C(C)C)/C(=O)OC3=C2C)O)OC1(C)C`, the viability was 108.

In turn, `CN1CCN(CCCN2c3ccccc3Sc3ccc(C(F)(F)F)cc32)CC1` gave a viability of 79.1.

For `NC(=O)c1c(OCc2c(F)cc(Br)cc2F)nsc1NC(=O)NCCCCN1CCCC1`, the viability was determined as 101.

`CC(C)n1cnc2c(NCCCCCCNC(=O)OC(C)(C)C)nc(NCCO)nc21` registered a viability of 107.

`CC1=CC=C(C=C1)N(C\C2=N\CCN2)C3=CC=CC(=C3)O` registered a viability of 116.

Take `CC[C@@H]1/C=C(\C)C[C@H](C)C[C@H](OC)[C@H]2O[C@@](O)(C(=O)C(=O)N3CCCC[C@H]3C(=O)O[C@H](/C(C)=C/[C@@H]3CC[C@H](Cl)[C@H](OC)C3)[C@H](C)[C@@H](O)CC1=O)[C@H](C)C[C@@H]2OC`: the viability was 63.6.

`NC12CC3CC(CC(C3)C1)C2` displayed a viability of 136.

The molecule `Cc1nc2ccc(CN(C)c3ccc(C(=O)N[C@@H](CCC(=O)O)C(=O)O)s3)cc2c(=O)[nH]1` came in with a viability of 116.

Consider `CC\1=C(C(\N=C(/N1)C2=CC(=NC=C2)Cl)C3=C(F)C=C(Cl)C=C3)/C(=O)NC4=C(F)C=C5[NH]N=CC5=C4` (configuration not stated), for which the viability was 101.

On to `CN1CCC(CNc2ccc3ncc(-c4cccc(OC(F)(F)F)c4)n3n2)CC1`, for which the viability amounted to 52.5.

The molecule `CCN(CC)CCCC(C)Nc1nc(C)cc(Nc2ccc3nc(C)cc(N)c3c2)n1` (configuration not stated) displayed a viability of 106.

As to `CCOC(=O)c1ccc(OC(=O)CCCCCNC(=N)N)cc1`, the viability turned out to be 138.

Regarding `Cc1c(C)n(Cc2ccc(-c3ccccc3C(=O)O)cc2)c2ccc(C(=O)N[C@@H](C)c3ccc([N+](=O)[O-])cc3)cc12`, the viability came out at 102.

As for `c1ccc2c(Oc3nc(Nc4ccc(N5CCOCC5)cc4)c4ncn(C5CCCCC5)c4n3)cccc2c1`, the viability stood at 124.

In turn, `CC1(C)[C@@H](O[C@H]2O[C@H](C(=O)O)[C@@H](O)[C@H](O)[C@H]2O[C@@H]2O[C@H](C(=O)O)[C@@H](O)[C@H](O)[C@H]2O)CC[C@]2(C)[C@H]3C(=O)C=C4[C@@H]5C[C@@](C)(C(=O)O)CC[C@]5(C)CC[C@@]4(C)[C@]3(C)CC[C@@H]12` showed a viability of 115.

On to `CC(C)(C)c1cc(C=C(C#N)C#N)cc(Br)c1O`, for which the viability is 101.

`CCCC(C)(COC(N)=O)COC(=O)NC(C)C` (configuration not stated) showed a viability of 117.

`OC(CN1CCN(c2cccc(Cl)c2)CC1)C(c1ccccc1)c1ccccc1` (configuration not stated) had a viability of 92.

Molecule `CCOC(=O)Nc1ccc(NCc2ccc(F)cc2)cc1N` gave a viability of 81.8.

As for `COc1cc2nccc(Oc3ccc(NC(=O)Nc4ccc(F)cc4F)c(F)c3)c2cc1OC`, the viability was 91.3.

In turn, `NC[C@H](O)c1ccc(O)c(O)c1` returned a viability of 113.

Molecule `COc1cc2ncnc(Nc3cccc(Cl)c3)c2cc1OC` came in with a viability of 98.8.

In turn, `CCOc1cc(N2CCC(O)CC2)ccc1Nc1ncc2c(n1)N(C)c1ccccc1C(=O)N2C` displayed a viability of 89.8.

`O[C@@H]1[C@@H](O)[C@H](O[C@@H]([C@H]1O)C(O)=O)OC2=C(O)C(=C3C(=O)\C=C(/OC3=C2)C4=CC=CC=C4)O` displayed a viability of 133.

The molecule `CN1CC/C(CC1)=C3\c4ccccc4CC(=O)c2sccc23` showed a viability of 97.2.

In the case of `C\C1=C\C(=O)OC2=C1C=CC(=C2)O`, the viability came to 110.

As to `C[C@@H]1CC[C@@]2(OC1)OC1CC3C4CC=C5CC(O)CCC5(C)C4CCC3(C)C1[C@@H]2C` (some centres not stated), the viability worked out at 120.

`Cc1cnc(Nc2ccc(F)cc2Cl)nc1-c1c[nH]c(C(=O)N[C@H](CO)c2cccc(Cl)c2)c1` registered a viability of 80.9.

`C=CCn1c(=O)c2cnc(Nc3ccc(N4CCN(C)CC4)cc3)nc2n1-c1cccc(C(C)(C)O)n1` gave a viability of 63.1.

In turn, `CC(C)(C)C(=O)OCOP(=O)(COCCn1cnc2c(N)ncnc21)OCOC(=O)C(C)(C)C` showed a viability of 93.

For the molecule `O=c1[nH]c2ccccc2n1C1CCN(Cc2ccc(-c3nc4cc5nc[nH]c5cc4nc3-c3ccccc3)cc2)CC1`, the viability is 103.

For `CCC1=C[C@@H]2CN(C1)Cc1c([nH]c3ccccc13)[C@@](C(=O)OC)(c1cc3c(cc1OC)N(C)[C@H]1[C@@](O)(C(=O)OC)[C@H](OC(C)=O)[C@]4(CC)C=CCN5CC[C@]31[C@@H]54)C2`, the viability amounted to 89.9.

As for `CCCCOc1ccc(CC(=O)NO)cc1`, the viability came to 109.

Consider `CCCCCCCc1ccc(CCc2cccc(O)c2C(=O)O)cc1`, for which the viability was 108.

Take `CC(=O)O.Cc1c(-c2ccc(O)cc2)n(Cc2ccc(OCCN3CCCCCC3)cc2)c2ccc(O)cc12`: the viability worked out at 130.

With `C[C@H](Cc1ccc(O)c(O)c1)[C@@H](C)Cc1ccc(O)c(O)c1`, the viability came out at 110.

`COc1cc(F)c(F)c(Nc2ccc(I)cc2F)c1N[S+](=O)([O-])C1(C[C@H](O)CO)CC1` yielded a viability of 101.

For `O=C(O)CCc1ccc(NCc2cccc(Oc3ccccc3)c2)cc1`, the viability was 122.

For `Cn1c(=O)c2c(ncn2CC(O)CO)n(C)c1=O` (configuration not stated), the viability was 138.

Molecule `OCCn1cc(-c2cnc3nnn(Cc4ccc5ncccc5c4)c3n2)cn1` showed a viability of 106.

`COc1cc(OC)c(/C=C/[S+](=O)([O-])Cc2ccc(OC)c(NCC(=O)[O][Na])c2)c(OC)c1` had a viability of 118.

`Cc1cncc2cccc([S+](=O)([O-])N3CCCN(C(=O)CN)C[C@@H]3C)c12` displayed a viability of 138.

The molecule `CC1CCC(C(=O)N(c2cc(C#CC(C)(C)C)sc2C(=O)O)C2CCC(O)CC2)CC1` (configuration not stated) came in with a viability of 106.

Turning to `CC(C)(C)C(=O)Oc1ccc2c(c1)nc(NC(=O)c1cccc([N+](=O)[O-])c1)n2CCCO`, the viability turned out to be 106.

Consider `NC1=NC(=O)N2CC12` (configuration not stated), for which the viability is 138.

The molecule `CCNC(=O)Nc1ccc(Oc2ncnc(N)c2/C=N/OC)cc1Cl` returned a viability of 109.

As for `CO[C@H]1C[C@@H]2CC[C@@H](C)[C@@](O)(O2)C(=O)C(=O)N2CCCC[C@H]2C(=O)O[C@H]([C@@H](C)C[C@@H]2CC[C@@H](O)[C@H](OC)C2)CC(=O)[C@H](C)/C=C(\C)[C@@H](O)[C@@H](OC)C(=O)[C@H](C)C[C@H](C)/C=C/C=C/C=C/1C`, the viability is 106.

In the case of `C[S+](=O)([O-])c1cccc(CNc2nc(Nc3ccc4c(c3)CCC(=O)N4)ncc2C(F)(F)F)c1`, the viability is 66.8.

Molecule `COc1ccc(C(=O)c2c(C)n(CCN3CCOCC3)c3ccccc23)cc1` yielded a viability of 122.

`ClC1=C[NH]N=C1C\2NC(=N\C3=C2C(=O)CCC3)/NC4=NC5=CC=CC=C5O4` (configuration not stated) displayed a viability of 124.

For the molecule `CNCCCC12CCC(c3ccccc31)c1ccccc12`, the viability is 105.

The molecule `Oc1ccc(/C=C/c2cc(O)cc(O)c2)cc1` returned a viability of 96.3.

Regarding `CCCCCCCCCCCCCCCCCCCCCCO`, the viability was found to be 103.

In turn, `CCc1cccc(CC)c1NC(=O)N1Cc2[nH]nc(NC(=O)c3ccc(N4CCN(C)CC4)cc3)c2C1` came in with a viability of 87.2.

With `COC(=O)c1ccc2c(c1)NC(=O)/C2=C(\Nc1ccc(N(C)C(=O)CN2CCN(C)CC2)cc1)c1ccccc1`, the viability came to 112.

Turning to `Clc1cc(Cl)cc(CNc2ncncc2-c2ccc3c(c2)OCO3)c1`, the viability is 99.6.

Molecule `COc1ccc(C(C)=O)c(O)c1` yielded a viability of 103.

On to `C[C@]\12CC[C@H](O)CC1=C/CC3C2CC[C@@]\4(C)C3C\C=C4[N]5C=NC6=C5C=CC=C6` (some centres not stated), for which the viability amounted to 108.

On to `C[C@H]1C[C@@H]2[C@H](CC[C@@]3(C)[C@H]2CC[C@]3(OC(C)=O)C(C)=O)[C@@]\4(C)CCC(=O)\C=C14`, for which the viability amounted to 147.

Molecule `C[C@H](CCC(=O)O)[C@H]1CC[C@H]2[C@@H]3[C@@H](O)C[C@@H]4C[C@H](O)CC[C@]4(C)[C@H]3CC[C@]12C` gave a viability of 84.8.

Molecule `NC(=O)OCC(COC(N)=O)c1ccccc1` displayed a viability of 110.

`c1cc(-c2sc(-c3ccncc3)c(-c3ccncc3)c2-c2ccncc2)ccn1` had a viability of 106.

In the case of `O=C1CCC[C@@H]2[C@H]3CCCN4CCC[C@@H](CN12)[C@@H]34`, the viability was determined as 117.
